Values quoted from earlier work as cited in publication PMC7904743, “WIDOCK: a reactive docking protocol for virtual screening of covalent inhibitors” (Journal of Computer-Aided Molecular Design, 2021).
Read-outs that look alike come from different tables or passages of the source.

Columns and labels:
OTUB2 = conditions: experimental actives if % labeling higher than 50%, cited from earlier work
[1] = thiol reactivity, cited from earlier work
NUDT7 = conditions: protein labeling at 200 μM; experimental actives if % labeling higher than 50%; cited from earlier work
[2] = natural log of average rate constant k
[3] = natural logarithm of average rate constant
[4] = natural log of average kinetic rate constant
[5] = natural log of average rate constant

Row | Compound | OTUB2 % labeling (OTUB2) [%] | ln(avg k) [1, 2] | ln(avg k) [1, 3] | NUDT7 % labeling (NUDT7) [%] | OTUB2 % labeling (OTUB2; OTUB2 protein labeling) [%] | ln(avg k) [1, 4] | ln(avg k) [1, 5]
1 | O=C(CCl)N1CCN(CC(=O)N2CCCC2)CC1 [PCM-0102346, O=C(CCl)N1CCN(CC(=O)N2CCCC2)CC1] | 0 | -16.189 | -16.189 | 0 | – | – | –
2 | CC(NC(=O)CCl)c1ccc2ccccc2c1 (stereo not drawn) [PCM-0102350, CC(NC(=O)CCl)c1ccc2ccccc2c1] | 47 | -16.423 | -16.423 | 31 | – | – | –
3 | O=C(CCl)Nc1nccs1 [PCM-0102242, O=C(CCl)Nc1nccs1] | 0 | -16.213 | -16.213 | 0 | – | – | –
4 | Cc1ccc(NC(=O)CCl)cc1C [PCM-0102339, Cc1ccc(NC(=O)CCl)cc1C] | 82 | -15.536 | -15.536 | 18 | – | – | –
5 | O=C(CCl)Nc1ccc(Br)cc1F [PCM-0102926, O=C(CCl)Nc1ccc(Br)cc1F] | – | – | – | 17 | 20 | -16.464 | -16.464
6 | Cc1cc(NC(=O)CCl)n(-c2ccc(F)cc2)n1 [PCM-0102665, Cc1cc(NC(=O)CCl)n(-c2ccc(F)cc2)n1] | 53 | -15.905 | -15.905 | 0 | – | – | –
7 | CN(C(=O)CCl)c1ccccc1 [PCM-0102368, CN(C(=O)CCl)c1ccccc1] | 0 | -15.648 | -15.648 | 0 | – | – | –
8 | CS(=O)(=O)c1ccc(Cl)c(NC(=O)CCl)c1 [PCM-0102220, CS(=O)(=O)c1ccc(Cl)c(NC(=O)CCl)c1] | 0 | -15.663 | -15.663 | 5 | – | – | –
9 | NS(=O)(=O)c1ccc(Cl)c(NC(=O)CCl)c1 [PCM-0103012, NS(=O)(=O)c1ccc(Cl)c(NC(=O)CCl)c1] | – | – | – | 0 | 10 | -15.947 | -15.947
10 | O=C(CCl)N1CCN(Cc2ccc3c(c2)OCO3)CC1 [PCM-0102397, O=C(CCl)N1CCN(Cc2ccc3c(c2)OCO3)CC1] | 0 | -15.445 | -15.445 | 0 | – | – | –
11 | COc1ccc2nc(NC(=O)CCl)sc2c1 [PCM-0102330, COc1ccc2nc(NC(=O)CCl)sc2c1] | 0 | -15.593 | -15.593 | 100 | – | – | –
12 | O=C(CCl)Nc1cc(F)cc(F)c1 [PCM-0102874, O=C(CCl)Nc1cc(F)cc(F)c1] | – | – | – | 18 | 0 | -15.799 | -15.799
13 | O=C(CCl)N1CCN(C2CCS(=O)(=O)C2)CC1 (stereo not drawn) [PCM-0102405, O=C(CCl)N1CCN(C2CCS(=O)(=O)C2)CC1] | 0 | -15.476 | -15.476 | 0 | – | – | –
14 | O=C(CCl)N1CCN(c2cccc(Cl)c2)CC1 [PCM-0103032, O=C(CCl)N1CCN(c2cccc(Cl)c2)CC1] | – | – | – | 22 | 21 | -15.657 | -15.657
15 | CC(=O)c1cccc(N2Cc3ccccc3C2=NC(=O)CCl)c1 [PCM-0102283, CC(=O)c1cccc(N2Cc3ccccc3C2=NC(=O)CCl)c1] | 0 | -16.303 | -16.303 | 0 | – | – | –
16 | N#Cc1oc2ccccc2c1NC(=O)CCl [PCM-0102252, N#Cc1oc2ccccc2c1NC(=O)CCl] | 86 | -15.605 | -15.605 | 37 | – | – | –
17 | O=C(CCl)N1CCN(c2ccccn2)CC1 [PCM-0102213, O=C(CCl)N1CCN(c2ccccn2)CC1] | 0 | -15.928 | -15.928 | 0 | – | – | –
18 | O=C(CCl)NCc1ccc(Cl)s1 [PCM-0103080, O=C(CCl)NCc1ccc(Cl)s1] | – | – | – | 0 | 79 | -16.506 | -16.506
19 | O=C(CCl)N1CCN(Cc2ccccc2)C1=O [PCM-0102919, O=C(CCl)N1CCN(Cc2ccccc2)C1=O] | – | – | – | 0 | 10 | -18.275 | -18.275
20 | COc1ccc(NC(=O)CCl)cc1 [PCM-0102156, COc1ccc(NC(=O)CCl)cc1] | 52 | -15.521 | -15.521 | 0 | – | – | –
21 | O=C(Nc1ccccc1)C1CCN(C(=O)CCl)CC1 [PCM-0102219, O=C(Nc1ccccc1)C1CCN(C(=O)CCl)CC1] | 0 | -15.089 | -15.089 | 0 | – | – | –
